How the values were obtained:
LRRK2 G2019S = LRRK2 G2019S (Homo sapiens (Human), UniProt Q5S007, G2019S); assay: Adapta kinase assay (LRRK2_IC50 assay); assay type: biochemical; conditions: Adapta TR-FRET, 1 h, room temperature
Experimental: In the Adapta™ kinase assay method (LRRK2_IC50 assay): the kinase reaction buffer contained kinase buffer S (Life Technologies, PV5213) and 2 mM DTT (Life Technologies, P2325). The kinases LRRK2 G2019S protein (PV4881) and ERM (LRRKtide, PV5093) were derived from Life Technologies. The Adapta™ universal kinase assay kit (Life Technologies, PV5099) contained the following components: Adapta™ Eu-anti-ADP antibody (PV5097; 4 μg); 10 μM AlexaFluor®647 ADP tracer (PV5098; 200 pmol); TR-FRET dilution buffer (PV3574; 100 mL); kinase quench buffer (P2825; 1 mL); 10 mM ATP (PV3227; 500 μL); and 10 mM ADP (PV5096; 500 μL). LRRK2-IN-1 (1234480-84-2, HY-10875) was derived from MedChem Express.
Adapta™ Kinase Assay Method
Adapta® universal kinase assay method is a uniform fluorescence-based immunoassay for detecting ADP. In contrast to ATP consumption assay, Adapta® assay method was very sensitive to ADP formation, with most signal changes occurring when initially 10-20% ATP was converted to ADP. This made Adapta® universal kinase assay method very suitable for low-activity kinases.
All assays were performed at room temperature (about 21° C.) and were linearly related to time and enzyme concentration under the conditions used. 1× kinase reaction buffer was prepared from 5× kinase buffer S stock solution (listed above), and 10 mL of 1× kinase reaction buffer was prepared by the addition of 2 mL of 5× stock solution to 8 mL of H2O. To the 1× kinase reaction buffer was added 20 μL of 1 M DTT.
A kinase reaction was performed in a low-volume 384-well plate in a volume of 10 μL. Typically, a Greiner plate was used (Catalog #3674 #, low volume, white wall, 784075). Other untreated assay plates that were not tested could also be suitable. The substrate concentration in the assay was 100 μM, and the 1× kinase reaction buffer consisted of 50 mM Tris-HCl (pH 8.5), 10 mM MgCl2, 1 mM EGTA, 0.01% Brij-35 and 2 mM DTT, as well as any other additives that could be necessary for the particular kinase. The kinase reaction was allowed to proceed for 1 h at room temperature, followed by the addition of a formulation of kinase quenching buffer (EDTA; 30 mM), Eu-labeled antibody (6 nM), and tracer (18.9 nM) in TR-FRET dilution buffer (5 μL). The final concentration of the antibody in the assay wells was 2 nM, the final concentration of the tracer was 6.3 nM, and the final concentration of EDTA was 10 mM. The plate was allowed to equilibrate at room temperature for at least 30 min and then read on a plate reader configured for Adapta™ TR-FRET.
The data provided in this document were generated by using BMG LABTECH PHERAstar plate reader and using appropriate filters and instrument settings for Adapta™. Test compounds were screened in wells with 1% DMSO (final). For 8-point titration, a 5-fold serial dilution was made on the basis of a starting concentration.

[1] = Drug tissue distribution assay: brain tissue pharmacokinetics / blood-brain barrier permeability; assay type: in vivo; conditions: mice, single oral intragastric 30 mg/kg
Experimental: (§1) Test sample: compound 4, purity 99%
(§2) Preparation of test sample: 22.73 mg of compound 4 was weighed and placed in a mortar (according to the purity of 99%), and a small amount of 0.5% CMC-Na was added followed by full grinding. The mixture was then transferred to a container; the mortar was washed for 4 times; the washing solution was transferred to the container, followed by the addition of 0.5% CMC-Na until the volume of the reaction solution was 30 mL; and then a test sample suspension with a concentration of […] was prepared. The suspension was stirred with a magnetic stirrer at a rotation speed of 1200 rpm for at least 15 min prior to sampling for analysis and administration, with fresh preparation just prior to use.
(§3) Route of administration: oral intragastric administration
(§4) Frequency and dose of administration: single administration at 30 mg/kg (40 mL/kg)
(§5) After drug administration, 0.4 mL of blood was collected from the heart of each group of animals at corresponding time points of 0.25 h, 0.5 h, 1 h, 2 h, 4 h, 6 h, 8 h, and 24 h, respectively, the animals were anesthetized by intraperitoneal injection of 50 mg/kg Zoletil, and then put to death by bleeding. The brain, lung, and kidney of each animal were taken out, washed with normal saline, dried off with filter paper, and put into a cryopreservation tube. The cryopreservation tube was temporarily placed in dry ice, and stored at −60° C. or below for 12 h.
(§6) The collected blood was anticoagulated with EDTA-K2, then temporarily placed in wet ice, and then centrifuged for 10 min at 4° C. and at 2600 g within 2 h. The plasma was temporarily placed in dry ice, and stored in a refrigerator at −60° C. or below within 14 h.
(§7) Analytical method: The drug concentrations in plasma and brain tissue were measured by the following LC-MS/MS method. • Instrument: Shimadzu LC-MS/MS (Model: LCMS-8060); • Chromatographic column: GL Sciences Inc., InertSustain, C18, 3 μm, 2.1×50 mm; • Ion detection: positive ion mode, m/z 453.10/338.05; • Mobile phase A: aqueous solution containing 0.1% TFA; mobile phase B: methanol solution containing 0.1% TFA;
(§8) Pharmacokinetic parameter evaluation index: pharmacokinetic parameters were calculated in a non-compartmental model using WinNonlin 6.4.

[2] = Drug tissue distribution assay: plasma pharmacokinetics; assay type: in vivo; conditions: mice, single oral intragastric 30 mg/kg
Experimental: as §1, §2, §3, §4, §5, §6, §7, §8

LRRK2 G2019S, sequence (Q5S007 whole entry G2019S): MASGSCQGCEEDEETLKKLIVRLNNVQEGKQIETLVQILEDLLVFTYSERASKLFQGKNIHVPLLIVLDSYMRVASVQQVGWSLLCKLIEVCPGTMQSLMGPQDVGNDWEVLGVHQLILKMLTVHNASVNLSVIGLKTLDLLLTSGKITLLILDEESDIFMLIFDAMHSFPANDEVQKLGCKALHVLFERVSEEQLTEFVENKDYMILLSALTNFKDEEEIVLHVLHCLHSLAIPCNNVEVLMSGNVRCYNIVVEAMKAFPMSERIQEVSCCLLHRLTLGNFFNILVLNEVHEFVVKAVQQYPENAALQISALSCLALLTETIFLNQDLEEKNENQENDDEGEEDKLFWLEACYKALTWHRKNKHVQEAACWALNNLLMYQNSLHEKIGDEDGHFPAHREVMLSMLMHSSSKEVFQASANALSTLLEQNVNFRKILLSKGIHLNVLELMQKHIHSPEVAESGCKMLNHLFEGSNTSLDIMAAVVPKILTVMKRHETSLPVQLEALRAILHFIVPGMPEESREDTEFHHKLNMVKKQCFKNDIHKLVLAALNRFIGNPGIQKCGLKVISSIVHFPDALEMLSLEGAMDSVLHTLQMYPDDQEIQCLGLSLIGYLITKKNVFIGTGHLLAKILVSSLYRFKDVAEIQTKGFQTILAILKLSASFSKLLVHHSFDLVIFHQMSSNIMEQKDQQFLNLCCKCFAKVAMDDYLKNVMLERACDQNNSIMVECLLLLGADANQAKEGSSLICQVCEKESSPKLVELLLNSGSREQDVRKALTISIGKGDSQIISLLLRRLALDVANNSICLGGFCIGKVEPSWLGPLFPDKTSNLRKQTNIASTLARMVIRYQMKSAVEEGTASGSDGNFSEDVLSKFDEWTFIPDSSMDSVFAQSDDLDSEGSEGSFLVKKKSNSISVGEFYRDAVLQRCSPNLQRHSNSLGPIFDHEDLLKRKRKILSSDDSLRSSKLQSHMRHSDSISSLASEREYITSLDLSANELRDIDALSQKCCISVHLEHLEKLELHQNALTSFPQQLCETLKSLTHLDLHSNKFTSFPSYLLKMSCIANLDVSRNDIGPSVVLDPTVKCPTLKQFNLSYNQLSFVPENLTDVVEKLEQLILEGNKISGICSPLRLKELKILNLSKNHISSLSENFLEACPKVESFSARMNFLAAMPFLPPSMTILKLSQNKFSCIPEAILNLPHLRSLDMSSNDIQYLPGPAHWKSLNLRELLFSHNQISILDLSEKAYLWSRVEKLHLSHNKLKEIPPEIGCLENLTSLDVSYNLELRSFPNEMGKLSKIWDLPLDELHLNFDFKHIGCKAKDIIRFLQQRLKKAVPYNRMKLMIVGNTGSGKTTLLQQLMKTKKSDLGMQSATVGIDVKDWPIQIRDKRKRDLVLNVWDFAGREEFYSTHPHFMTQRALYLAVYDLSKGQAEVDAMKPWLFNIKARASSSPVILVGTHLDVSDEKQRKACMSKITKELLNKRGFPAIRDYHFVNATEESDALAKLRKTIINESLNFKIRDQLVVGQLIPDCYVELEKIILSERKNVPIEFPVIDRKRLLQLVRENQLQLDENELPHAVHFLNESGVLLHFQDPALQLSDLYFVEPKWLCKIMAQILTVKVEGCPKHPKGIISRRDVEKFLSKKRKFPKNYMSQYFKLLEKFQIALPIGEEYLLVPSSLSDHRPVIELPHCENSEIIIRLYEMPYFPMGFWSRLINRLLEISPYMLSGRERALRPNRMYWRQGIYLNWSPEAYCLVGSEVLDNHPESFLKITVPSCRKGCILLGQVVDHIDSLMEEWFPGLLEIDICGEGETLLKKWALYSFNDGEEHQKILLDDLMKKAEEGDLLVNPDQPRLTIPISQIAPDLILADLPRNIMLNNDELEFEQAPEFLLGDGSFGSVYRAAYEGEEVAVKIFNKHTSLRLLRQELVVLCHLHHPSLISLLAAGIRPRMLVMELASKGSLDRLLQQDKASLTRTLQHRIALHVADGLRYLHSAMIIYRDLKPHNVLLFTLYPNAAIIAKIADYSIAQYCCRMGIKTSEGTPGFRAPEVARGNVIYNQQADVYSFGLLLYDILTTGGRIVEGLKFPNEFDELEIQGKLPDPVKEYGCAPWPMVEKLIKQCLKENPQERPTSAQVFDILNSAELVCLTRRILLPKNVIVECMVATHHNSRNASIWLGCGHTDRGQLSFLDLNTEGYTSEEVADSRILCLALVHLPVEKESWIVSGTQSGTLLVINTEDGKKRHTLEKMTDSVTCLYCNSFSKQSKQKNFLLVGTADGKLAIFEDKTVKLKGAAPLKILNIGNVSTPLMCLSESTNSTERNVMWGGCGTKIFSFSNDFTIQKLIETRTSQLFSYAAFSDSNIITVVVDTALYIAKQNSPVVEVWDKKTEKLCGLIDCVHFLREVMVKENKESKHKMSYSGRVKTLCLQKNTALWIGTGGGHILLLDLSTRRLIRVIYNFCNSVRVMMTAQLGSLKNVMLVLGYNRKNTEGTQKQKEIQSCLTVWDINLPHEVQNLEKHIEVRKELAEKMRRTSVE

Q: With `CCOc1nc(Nc2ccc(C(N3CCOCC3)C(F)(F)F)cc2OC)nc2[nH]ccc12` (single isomer, unassigned) [Compound 4, 4-ethoxy-N-(2-methoxy-4-(2,2,2-trifluoro-1-morpholinoethyl)phenyl)-7H-pyrrolo[2,3-d]pyrimidin-2-amine] as the compound, how does the IC50 (LRRK2 G2019S) read?
A: 0.017 µM

Q: What about the AUC0-t ([1]; brain tissue) of the same compound?
A: 6457 ng · h · g^−l

Q: What about the “AUC0-∞” value ([1]; brain tissue) of the same compound?
A: 7409 ng · h · g^−l

Q: What about the Cmax ([1]; brain tissue) of the same compound?
A: 1898 ng · g^−l

Q: And the blood-brain barrier permeability ([1]; result in words)?
A: excellent blood-brain barrier permeability

Q: What about the Kp ([1]; mouse, brain / plasma, read-out: AUCbrain/AUCplasma) of the same compound?
A: ~2

Q: What about the Tmax ([1]; mouse, brain tissue) of the same compound?
A: 1 h

Q: What about the AUC0-t [2] of the same compound?
A: 3248 ng · h · mL^−l

Q: And the “AUC0-∞” value [2]?
A: 3257 ng · h · mL^−l

Q: What about the Cmax [2] of the same compound?
A: 597 ng · mL^−l

Q: And the Kel [2]?
A: 0.247 h^−l

Q: And the CL/F ([2]; mouse)?
A: 9.21 L/h/kg

Q: And the Tmax ([2]; mouse)?
A: 1 h

Q: And the half-life ([2]; mouse)?
A: 2.8 h

Q: What about the MRT last ([2]; mouse, read-out: MRT0-t) of the same compound?
A: 4.5 h

Q: And the MRT inf ([2]; mouse, read-out: MRT0-∞)?
A: 4.56 h

Q: What about the Vd/F ([2]; mouse, read-out: Vz/F) of the same compound?
A: 37.3 L/kg
